Calls of active or inactive are those of the source. No cut-off for these calls is given here.
Columns and labels:
Homo sapiens [1] = organism: Homo sapiens; test: Inhibition of RNase A (unknown origin) assessed as reduction in tRNA substrate degradation at 0.1 to 0.2 mM pretreated for 3 hrs followed by substrate addition measured after 30 mins by ethidium bromide staining based agarose gel electrophoresis
Homo sapiens [2] = organism: Homo sapiens; test: Inhibition of RNase A (unknown origin) assessed as reduction in tRNA substrate degradation at 0.6 to 1 mM pretreated for 3 hrs followed by substrate addition measured after 30 mins by ethidium bromide staining based agarose gel electrophoresis
Homo sapiens [3] = organism: Homo sapiens; test: Inhibition of RNase A (unknown origin) assessed as reduction in tRNA substrate degradation at 0.1 to 0.15 mM pretreated for 3 hrs followed by substrate addition measured after 30 mins by ethidium bromide staining based agarose gel electrophoresis
Homo sapiens [4] = organism: Homo sapiens; test: Inhibition of RNase A (unknown origin) assessed as reduction in tRNA substrate degradation at 0.35 to 0.5 mM pretreated for 3 hrs followed by substrate addition measured after 30 mins by ethidium bromide staining based agarose gel electrophoresis
Homo sapiens [5] = organism: Homo sapiens; test: Inhibition of RNase A (unknown origin) assessed as reduction in tRNA substrate degradation at 0.25 to 0.3 mM pretreated for 3 hrs followed by substrate addition measured after 30 mins by ethidium bromide staining based agarose gel electrophoresis
[6] = Inhibition of RNase A (unknown origin) using varying levels of 2',3'-cCMP as substrate by Lineweaver-burk plot analysis; design: species or system Homo sapiens

| inhibition (Homo sapiens [1]) | inhibition (Homo sapiens [2]) | inhibition (Homo sapiens [3]) | inhibition (Homo sapiens [4]) | inhibition (Homo sapiens [5]) | Ki [6] | Compound |
| --- | --- | --- | --- | --- | --- | --- |
| Active | Active | Active | Active | Active | 563 µM | CC1(C)O[C@H]2O[C@H](Cn3nncc3[C@H]3O[C@@H]4OC(C)(C)O[C@@H]4[C@H]3OCc3ccccc3)[C@H](O)[C@H]2O1 |
|  |  |  |  |  | 66 µM | Cc1cn([C@@H]2O[C@H](C(=O)N[C@H](CC(=O)O)C(=O)N[C@H]3C[C@H](n4cc(C)c(=O)[nH]c4=O)O[C@@H]3CO)[C@@H](O)[C@H]2O)c(=O)[nH]c1=O |
